Experimental findings from patent US4537777A, “A52688 Antibiotics and process for their production” (priority 1983, dated 1985) are described below.

Like-named read-outs stand apart in the source and are kept apart here. A value given as a limit tells only on which side of the number the result lay.

For series [1], the system named is Staphylococcus aureus. The series can be described thus: standard disc-plate assay. Conditions: read-out: Zone Diameters. It counts as cell-based.
The test system of series [2] is Bacillus subtilis. The series can be described thus: standard disc-plate assay. It counts as cell-based. As to conditions: read-out: Zone Diameters.
Series [3] has as its system Micrococcus luteus. Put plainly: standard disc-plate assay. In kind it is cell-based. As to conditions: read-out: Zone Diameters.
Series [4] has as its system Mycobacterium avium. Put plainly: standard disc-plate assay. In kind it is cell-based. As to conditions: read-out: Zone Diameters.
Series [5] deals with Saccharomyces pastorianus. The series can be described thus: standard disc-plate assay. It counts as cell-based. As to conditions: read-out: Zone Diameters.
For series [6], the system named is Neurospora crassa. The series can be described thus: standard disc-plate assay. It counts as cell-based. As to conditions: read-out: Zone Diameters.
In series [7] the test system is Candida albicans. The series can be described thus: standard disc-plate assay. In kind it is cell-based. Conditions: read-out: Zone Diameters.
The subject of series [8] is Trichophyton mentagroprophytes. Put plainly: standard disc-plate assay. It counts as cell-based. As to conditions: read-out: Zone Diameters.
Series [9] relates to Proteus vulgaris. The series can be described thus: standard disc-plate assay. In kind it is cell-based. As to conditions: read-out: Zone Diameters.
Series [10] has as its system Salmonella gallinarium. Put plainly: standard disc-plate assay. In kind it is cell-based. Conditions: read-out: Zone Diameters.
Series [11] relates to Escherichia coli. The series can be described thus: standard disc-plate assay. It counts as cell-based. Here is the method: In Table IX the standard discplate-assay activity of the A52688 factors is summarized. Activity is measured as the diameter (in mm) of the observed zone of inhibition; the diameter of the disc used in each case was 6.35 mm.
Series [12] has as its system Serratia marcescens. The series can be described thus: standard disc-plate assay. It counts as cell-based. As to conditions: read-out: Zone Diameters.
Series [13] relates to Pseudomonas solanacearum. The series can be described thus: microbe, parasite or virus in culture. In kind it is cell-based. Conditions: Ralstonia solanacearum, read-out: Zone Diameters.
The test system of series [14] is Bacillus stereothermophilus. The series can be described thus: standard disc-plate assay. Conditions: read-out: Zone Diameters. In kind it is cell-based.
For series [15], the system named is Adenocarcinoma 755. Put plainly: murine-transplanted tumor adenocarcinoma 755 in mice. It counts as in vivo. As to conditions: daily for 10 days. Here is the method:
A52688 factors A, C, D, E, F, G, H, J and K and the specified acyl esters of factors A, C, D, E, G, H, J and K are especially useful as oncolytic agents.
Table X summarizes the results of experiments in which mice bearing the murine-transplanted tumor adenocarcinoma 755 were treated with compounds of this invention. In each test the compound was administered by the intraperitoneal route at specified dose levels. The compound was administered over a ten-day period, either on a daily basis or on days one, five and nine, as indicated.

Series [16] is described as follows: acute toxicity in mice. As to conditions: mouse, in vivo, ip, intraperitoneal, formulated in aqueous PVP, read-out: Intraperitoneal LD50. From the text: ^a Compounds formulated in aqueous PVP
^b Route test compound administered

The subject of series [17] is Pseudomonas aeruginosa. Put plainly: standard disc-plate assay. In kind it is cell-based. As to conditions: read-out: Zone Diameters.
The mark [18] stands for this setting: read-out: Zone Diameters, conc 0.1 mg/ml, disc 6.35 mm.
The mark [19] stands for this setting: read-out: Zone Diameters, in minimal medium, conc 0.1 mg/ml, disc 6.35 mm.
Setting [20] is: 0.25 mg/kg i.p., of 10 mice tested (9 for factor E).
[21] abbreviates: 0.50 mg/kg i.p., of 10 mice tested (8 for factor E).
Where [22] appears, read: conc 0.1 mg/ml, disc 6.35 mm, ^b overgrowth: factor B.
The mark [23] stands for this setting: conc 0.1 mg/ml, disc 6.35 mm, ^b overgrowth: factor F.
The mark [24] stands for this setting: conc 0.1 mg/ml, disc 6.35 mm, ^b overgrowth: factors B, C, F.
Where [25] appears, read: conc 0.1 mg/ml, disc 6.35 mm, ^b overgrowth: factors A, C, E, F, G.
[26] abbreviates: conc 0.1 mg/ml, disc 6.35 mm, read-out: Zone Diameters.
Setting [27] is: in minimal medium, conc 0.1 mg/ml, disc 6.35 mm, read-out: Zone Diameters.
Setting [28] is: conc 0.1 mg/ml, disc 6.35 mm, ^b overgrowth: factor C.

With `[C-]#[N+]C(=CC1=C[C@@H](O)[C@H](O)CC1)C(=CC1CCC(O)CC1)[N+]#[C-]` (relative stereo) [Factor C], the zone of inhibition at 100 µg/mL in series [1] was 16 mm; in series [2], 23 mm; in [3], 33 mm; in [4] it was 18 mm; in series [5] it was 15 mm; in series [6], 22 mm. Moreover, the zone of inhibition at 100 µg/mL in [7] was determined as 16 mm; in [8] it was 15 mm; in series [9], 26 mm; in [10], 38 mm; in [11] (setting [18]), 24 mm; in series [11] (setting [19]) it was 20 mm. Besides, the zone of inhibition at 100 µg/mL amounted to 15 mm in [12], 20 mm in series [13] (conc 0.1 mg/ml) and 35 mm in series [14]. The “Percent Tumor Inhibition” value in series [15] (0.125 mg/kg i.p.) came to 60%; in series [15] (0.25 mg/kg i.p.), 47%; in series [15] (0.50 mg/kg i.p.), 72%. The “Toxic Deaths” value in series [15] (0.125 mg/kg i.p., of 10 mice tested) is on record as 0; in [15] (setting [20]), 0; in series [15] (setting [21]), 5. For the same molecule, the 50% lethal dose (LD50) (commonly the dose at which mortality reaches 50%) in series [16] is less than 2.34 mg/kg.

`[C-]#[N+]C(=Cc1ccc(O)cc1)C(=CC1CCC(OC(=O)C=C(C)C)CC1)[N+]#[C-]` (stereo not drawn) [Factor D]: the zone of inhibition at 100 µg/mL in series [1] (setting [22]) stood at 18 mm; in series [2] (conc 0.1 mg/ml, disc 6.35 mm) it was 18 mm; in series [3] (conc 0.1 mg/ml, disc 6.35 mm), 26 mm; in series [4] (setting [23]), 13 mm; in [5] (setting [24]), 13 mm; in [6] (conc 0.1 mg/ml, disc 6.35 mm), 22 mm. Also, the zone of inhibition at 100 µg/mL in series [7] (conc 0.1 mg/ml, disc 6.35 mm) was determined as 19 mm; in series [8] (conc 0.1 mg/ml, disc 6.35 mm) it was 21 mm; in series [9] (setting [25]), 12 mm; in series [10] (conc 0.1 mg/ml, disc 6.35 mm) it was 14 mm; in series [11] (setting [26]) it was 15 mm; in [11] (setting [27]), 11 mm. The zone of inhibition at 100 µg/mL in [17] (conc 0.1 mg/ml, disc 6.35 mm) is 13 mm; in series [12] (setting [28]), 12 mm; in series [13] it was 17 mm; in [14] (conc 0.1 mg/ml, disc 6.35 mm) it was 21 mm. In series [16], the 50% lethal dose (LD50) is 0.992 mg/kg.

With `[C-]#[N+]C(=CC1=C[C@@H](OC)[C@@H](O)CC1)C(=CC1CCC(OC(=O)C=C(C)C)CC1)[N+]#[C-]` (relative stereo) [Factor J], the zone of inhibition at 100 µg/mL in series [1] was found to be 23 mm; in series [2], 19 mm; in [3], 29 mm; in [4], 14 mm; in series [5], 19 mm; in series [6], 36 mm. Further, the zone of inhibition at 100 µg/mL in series [7] stood at 22 mm; in [8] it was 37 mm; in [9], 22 mm; in [10], 17 mm; in series [11] (setting [18]), 15 mm; in series [11] (setting [19]), 13 mm. Moreover, the zone of inhibition at 100 µg/mL in series [17] stood at 12 mm; in series [12], 12 mm; in series [13] (conc 0.1 mg/ml), 21 mm; in [14], 25 mm.

Turning to `[C-]#[N+]C(=CC1=C[C@@H](OC(C)=O)[C@H](O)CC1)C(=CC1CCC(OC(=O)C=C(C)C)CC1)[N+]#[C-]` (relative stereo) [Factor H], the zone of inhibition at 100 µg/mL in series [1] (setting [22]) amounted to 20 mm; in series [2] (conc 0.1 mg/ml, disc 6.35 mm), 16 mm; in series [3] (conc 0.1 mg/ml, disc 6.35 mm), 27 mm; in series [4] (setting [23]), 10 mm; in [5] (setting [24]) it was 16 mm; in series [6] (conc 0.1 mg/ml, disc 6.35 mm) it was 33 mm. For the same molecule, the zone of inhibition at 100 µg/mL is 18 mm in series [7] (conc 0.1 mg/ml, disc 6.35 mm); 35 mm in [8] (conc 0.1 mg/ml, disc 6.35 mm); 17 mm in [9] (setting [25]); 16 mm in series [10] (conc 0.1 mg/ml, disc 6.35 mm); 15 mm in [11] (setting [26]); 10 mm in series [11] (setting [27]). The zone of inhibition at 100 µg/mL is 11 mm in series [17] (conc 0.1 mg/ml, disc 6.35 mm); 10 mm in [12] (setting [28]); 18 mm in [13]; 24 mm in [14] (conc 0.1 mg/ml, disc 6.35 mm).

Turning to `O=CNC=Cc1ccc(O)cc1` [Factor B], the zone of inhibition at 100 µg/mL came out at 25 mm in series [1] (setting [22]); 21 mm in series [2] (conc 0.1 mg/ml, disc 6.35 mm); 22 mm in series [3] (conc 0.1 mg/ml, disc 6.35 mm); 14 mm in [5] (setting [24]); 24 mm in series [6] (conc 0.1 mg/ml, disc 6.35 mm); 11 mm in series [7] (conc 0.1 mg/ml, disc 6.35 mm). In addition, the zone of inhibition at 100 µg/mL is 19 mm in [8] (conc 0.1 mg/ml, disc 6.35 mm) and 21 mm in series [14] (conc 0.1 mg/ml, disc 6.35 mm). The 50% lethal dose (LD50) in [16] was more than 75 mg/kg.

For the molecule `[C-]#[N+]C(=CC1CCC(OC(=O)C=C(C)C)CC1)C(=CC1(OC(C)=O)C=CC(=O)CC1)[N+]#[C-]` (stereo not drawn) [Factor F], the zone of inhibition at 100 µg/mL came to 26 mm in series [1] (setting [22]); 27 mm in [2] (conc 0.1 mg/ml, disc 6.35 mm); 30 mm in series [3] (conc 0.1 mg/ml, disc 6.35 mm); 17 mm in series [4] (setting [23]); 22 mm in [5] (setting [24]); 33 mm in series [6] (conc 0.1 mg/ml, disc 6.35 mm). In addition, the zone of inhibition at 100 µg/mL in series [7] (conc 0.1 mg/ml, disc 6.35 mm) was 21 mm; in series [8] (conc 0.1 mg/ml, disc 6.35 mm) it was 20 mm; in series [9] (setting [25]), 20 mm; in [10] (conc 0.1 mg/ml, disc 6.35 mm), 11 mm; in [11] (setting [26]), 17 mm; in series [13], 10 mm. In addition, in [14] (conc 0.1 mg/ml, disc 6.35 mm), the zone of inhibition at 100 µg/mL was 27 mm. The “Percent Tumor Inhibition” value is on record as 51% in series [15] (0.25 mg/kg i.p.), 69% in [15] (0.50 mg/kg i.p.), 91% in series [15] (1.00 mg/kg i.p.) and “toxic” in [15] (2.00 mg/kg i.p.). Also, the “Toxic Deaths” value worked out at 0 in series [15] (setting [20]); 0 in series [15] (setting [21]); 2 in [15] (1.00 mg/kg i.p., of 10 (factor E) or 9 (factor F) mice tested); 10 in series [15] (2.00 mg/kg i.p., of 10 mice tested). For the same molecule, the LD50 in series [16] came out at 5 mg/kg.
